Measurements reported in US4543353A, “Ester and amide derivatives of 13,14-didehydro prostaglandins” (Farmitalia Carlo Erba S.p.A., priority 1981, dated 1985).

How the values were obtained:
[1] = tested on: hamster; experiment: luteolytic activity in the hamster after subcutaneous injection; assay type: in vivo; details: Mesocricetus auratus, sc, according to A. B. Labhsetwar, Nature, vol. 230, page 528 (1971)
Procedure: In this application, the compounds are administered either by intravenous infusion at a dose of approximately 0.01-0.05 μg/kg/minute until the end of labor, or by mouth at a single or multiple doses from about 0.05 mg to about 5 mg pro dose. […] For example, the luteolytic activity of the compound 5c-9α,11α,15(S)-trihydroxy-18,19,20-trinor-17-cyclohexyl-prost-5-en-13-ynoic acid 2-ethoxy-ethyl ester, expressed as ED50 value and evaluated in the hamster after subcutaneous injection [according to A. B. LABHSETWAR, Nature, vol.

[2] = duration of activity when administered orally; assay type: in vivo
[3] = orientative acute toxicity, LD50, single oral administration; details: mouse, in vivo, mice, nine hours food deprived, assessed on the seventh day
Procedure: The evaluation of the toxicity (as orientative acute toxicity, i.e. LD50) was carried out, e.g., as follows: nine hours food deprived mice were treated orally with single administration of increasing doses, then housed and normally fed; the LD50 was assessed on the seventh day after the treatment.

SMILES	ED50 [1]	activity duration compared with the parent acid or alkyl ester derivatives [2]	LD50 at 168 h [3]
COC(=O)CCC/C=C\C[C@@H]1[C@@H](C#C[C@@H](O)CCC2CCCCC2)[C@H](O)C[C@@H]1O [5c-9α,11α,15(S)-trihydroxy-18,19,20-trinor-17-cyclohexyl-prost-5-en-13-ynoic acid methyl ester, reference compound]	0.009 mg/kg	–	–
CCOCCOC(=O)CCC/C=C\C[C@@H]1[C@@H](C#C[C@@H](O)CCCCC2CCCCC2)[C@H](O)C[C@@H]1O [5c-9α,11α,15(S)-trihydroxy-20-nor-19-cyclohexyl-prost-5-en-13-ynoic acid 2-ethoxy-ethyl ester]	–	more lasting activity	> 3000 mg/kg
CCOCCOC(=O)CCC/C=C\C[C@@H]1[C@@H](C#C[C@@H](O)CC2CCCCC2)[C@H](O)C[C@@H]1O [5c-9α,11α,15(S)-trihydroxy-17,18,19,20-tetranor-16-cyclohexyl-prost-5-en-13-ynoic acid 2-ethoxy-ethyl ester]	–	more lasting activity	–
CCOCCOC(=O)CCC/C=C\C[C@@H]1[C@@H](C#C[C@@H](O)CCC2CCCCC2)[C@H](O)C[C@@H]1O [5c-9α,11α,15(S)-trihydroxy-18,19,20-trinor-17-cyclohexyl-prost-5-en-13-ynoic acid 2-ethoxy-ethyl ester]	0.005 mg/kg	–	–
